Columns and labels:
[1] = test system: TGF-α; settings: background art; cited from earlier work
[2] = background art; cited from earlier work
[3] = test system: mouse epithelial cells; experiment: Cell toxicity in mouse epithelial cells; assay type: cell-based; settings: 50 μg/ml
[4] = test system: src^ts -NRK cells; experiment: Cell toxicity in src^ts-NRK cells; assay type: cell-based, Rat; settings: 50 μg/ml, 32° C.
[5] = Solubility
[6] = Acute toxicity; settings: mouse, in vivo, iv

**Q.** For `O=CN/C=C/c1cc(O)ccc1O` [Erbstatin], which potency [1] is on record?
**A.** not sufficiently potent

**Q.** And the effect in blood [2]?
**A.** lose their effects in blood

**Q.** For `CCCC[C@@]1(OC(=O)CCC(=O)O)CC[C@]2(CC[C@H](C)[C@@H](C/C=C(C)/C=C/[C@H](O)[C@@H](C)/C=C/C(=O)O)O2)O[C@H]1/C=C/C(C)=C/C(=O)O` [Reveromycin A], which cell toxicity [3] is on record?
**A.** observed

**Q.** What about the cell toxicity [4] of the same compound?
**A.** observed

**Q.** What about the Solubility ([5]; aqueous acidic solution) of the same compound?
**A.** insoluble

**Q.** And the Solubility ([5]; dimethylsulfoxide, ethyl acetate, and methanol)?
**A.** easily soluble

**Q.** And the LD50 [6]?
**A.** ≥ 100 mg/kg

From patent publication US5322854A, “Reveromycin A, method for preparing the same, and antitumor agent and antifungal agent comprising the same” (Rikagaku Kenkyusho, priority 1990, dated 1994)
